Measurements reported in patent publication US20240325390A1 (Aerovate Therapeutics, Inc., priority 2020, published 2024).
Where a name gives a salt, the structure may show the parent alone. Read-outs that look alike come from different tables or passages of the source.

Tests used:
[1] = imatinib in plasma, MAD Day 7, mean
clinical [2] = settings: human, in vivo
clinical [3] = settings: human, plasma; for AUC / AUC(0-t) / Cmax: inhaled or intranasal; for Cmax / concentration at 7 day: imatinib in plasma, mean; for concentration at 7 day: inhaled

Compound: Cc1ccc(NC(=O)c2ccc(CN3CCN(C)CC3)cc2)cc1Nc1nccc(-c2cccnc2)n1 [AV-101, imatinib]
- Fluctuation ([1]; inhaled 10 mg AV-101 BID): 78.28%
- Fluctuation ([1]; inhaled 30 mg AV-101 BID): 70.30%
- Fluctuation ([1]; inhaled 90 mg AV-101 BID): 67.18%
- AUC(0-t) (clinical [2]; inhaled or intranasal, 1 mg): 9.9 ng·h/mL
- Cmax (clinical [2]; inhaled or intranasal, 1 mg): 1.16 ng/mL
- Tmax (clinical [2]; inhaled or intranasal, 1 mg): 3 h
- AUC(0-t) (clinical [2]; inhaled or intranasal, 3 mg): 65.4 ng·h/mL
- Cmax (clinical [2]; inhaled or intranasal, 3 mg): 3.81 ng/mL
- AUC(0-t) (clinical [2]; inhaled or intranasal, 10 mg): 319 ng·h/mL
- Cmax (clinical [2]; inhaled or intranasal, 10 mg): 20.2 ng/mL
- Tmax (clinical [2]; inhaled or intranasal, 10 mg): 0.18 h
- AUC(0-t) (clinical [2]; inhaled or intranasal, 30 mg): 1280 ng·h/mL
- Cmax (clinical [2]; inhaled or intranasal, 30 mg): 73.8 ng/mL
- AUC(0-t) (clinical [2]; inhaled or intranasal, 90 mg): 6670 ng·h/mL
- Cmax (clinical [2]; inhaled or intranasal, 90 mg): 424 ng/mL
- AUC (clinical [3]; 10 mg): 590 ng·h/mL
- AUC(0-t) (clinical [3]; 10 mg): 182 ng·h/mL
- Cmax (clinical [3]; 10 mg, MAD Day 1, inhaled 10 mg AV-101): 24.1 ng/mL
- Cmax (clinical [3]; 10 mg, ss, MAD Day 7, inhaled 10 mg AV-101 BID): 69.2 ng/mL
- AUC (clinical [3]; 30 mg): 1920 ng·h/mL
- AUC(0-t) (clinical [3]; 30 mg): 673 ng·h/mL
- Cmax (clinical [3]; 30 mg, MAD Day 1, inhaled 30 mg AV-101): 88.7 ng/mL
- Cmax (clinical [3]; 30 mg, ss, MAD Day 7, inhaled 30 mg AV-101 BID): 215 ng/mL
- AUC (clinical [3]; 90 mg): 7970 ng·h/mL
- AUC(0-t) (clinical [3]; 90 mg): 2210 ng·h/mL
- Cmax (clinical [3]; 90 mg, MAD Day 1, inhaled 90 mg AV-101): 262 ng/mL
- Cmax (clinical [3]; 90 mg, ss, MAD Day 7, inhaled 90 mg AV-101 BID): 890 ng/mL
- concentration at 7 day (clinical [3]; 10 mg, Cav, MAD Day 7, inhaled 10 mg AV-101 BID): 49.1 ng/mL
- concentration at 7 day (clinical [3]; 10 mg, Cmin, ss, MAD Day 7, inhaled 10 mg AV-101 BID): 31.7 ng/mL
- concentration at 7 day (clinical [3]; 30 mg, Cav, MAD Day 7, inhaled 30 mg AV-101 BID): 160 ng/mL
- concentration at 7 day (clinical [3]; 30 mg, Cmin, ss, MAD Day 7, inhaled 30 mg AV-101 BID): 118 ng/mL
- concentration at 7 day (clinical [3]; 90 mg, Cav, MAD Day 7, inhaled 90 mg AV-101 BID): 664 ng/mL
- concentration at 7 day (clinical [3]; 90 mg, Cmin, ss, MAD Day 7, inhaled 90 mg AV-101 BID): 534 ng/mL

Compound: Cc1ccc(NC(=O)c2ccc(CN3CCN(C)CC3)cc2)cc1Nc1nccc(-c2cccnc2)n1 [Imatinib, imatinib mesylate, reference compound]
- AUC(0-t) (clinical [2]; po, 400 mg): 32700 ng·h/mL
- Cmax (clinical [2]; po, 400 mg): 1710 ng/mL
